# Biological target: T1, Human ATX protein (Homo sapiens, UniProt Q13822)
# T1 construct: made in house
# Assay: Autotaxin (ATX) assay, FRET with FS-3 substrate
# Type: biochemical
# Details: for IC50: upper bound bins (no greater than 100, 250 or 500 nM), FS-3 2 μM, ATX 1.0 μg/mL; for inhibition at 10 µM: 10 uM compound
# Procedure, shortened: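 Hydrolysis of the FRET substrate FS-3 (2 μM final) unquenches fluorescein, read at excitation 485 nm and emission 538 nm after 2 h at room temperature, protected from light. Purified human ATX (1.0 μg/mL) and compound were first incubated for 30 min in pH 7.4 Tris/salt buffer containing 1 mg/mL fatty acid-free BSA.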
IC50,inhibition at 10 µM,Structure (SMILES)
≤ 100 nM,–,"O=C(OCc1cc(C(F)(F)F)cc(C(F)(F)F)c1)N1CCn2nc(C3CN4CCC[C@@H]4CO3)cc2C1 (stereo partly drawn) [Example 256, 3,5-bis(trifluoromethyl)benzyl 2-((8aR)-hexahydro-1H-pyrrolo[2,1-c][1,4]oxazin-3-yl)-6,7-dihydropyrazolo[1,5-a]pyrazine-5(4H)-carboxylate]"
≤ 100 nM,–,"CC1COCCN1CC(=O)c1cc2n(n1)CCCN(C(=O)OCc1cc(Cl)cc(C(F)(F)F)c1)C2 (centres unmarked) [Example 257, 3-chloro-5-(trifluoromethyl)benzyl 2-(2-(3-methylmorpholino)acetyl)-7,8-dihydro-4H-pyrazolo[1,5-a][1,4]diazepine-5(6H)-carboxylate]"
≤ 100 nM,–,O=C(CN1CC2CC2C1)c1cc2n(n1)CCN(C(=O)OCc1cc(C(F)(F)F)cc(C(F)(F)F)c1)C2 (centres unmarked) [Example 258]
≤ 100 nM,–,O=C(CN1CCOCC1)c1cc2n(n1)CCN(C(=O)OCc1cc(C(F)(F)F)cc(C(F)(F)F)c1)C2 [Example 259]
≤ 100 nM,–,CC1(C)COCCN1CC(=O)c1cc2n(n1)CCN(C(=O)OCc1cc(C(F)(F)F)cc(C(F)(F)F)c1)C2 [Example 260]
≤ 100 nM,–,CC1COCC(C)N1CC(=O)c1cc2n(n1)CCCN(C(=O)OCc1cc(Cl)cc(C(F)(F)F)c1)C2 (centres unmarked) [Example 261]
≤ 100 nM,–,C[C@H]1CCCN1CC(=O)c1cc2n(n1)CCCN(C(=O)OCc1cc(Cl)cc(C(F)(F)F)c1)C2 [Example 262]
≤ 100 nM,–,C[C@@H]1CCCN1CC(=O)c1cc2n(n1)CCCN(C(=O)OCc1cc(Cl)cc(C(F)(F)F)c1)C2 [Example 265]
≤ 100 nM,–,CC1OCCN(CC(=O)c2cc3n(n2)CCCN(C(=O)OCc2cc(Cl)cc(C(F)(F)F)c2)C3)C1C (centres unmarked) [Example 266]
≤ 100 nM,–,CC1(C)COCCN1CC(=O)c1cc2n(n1)CCCN(C(=O)OCc1cc(Cl)cc(C(F)(F)F)c1)C2 [Example 267]
≤ 100 nM,–,CC1CN(CC(=O)c2cc3n(n2)CCCN(C(=O)OCc2cc(Cl)cc(C(F)(F)F)c2)C3)CCO1 (centres unmarked) [Example 268]
≤ 100 nM,–,CC1CN(CC(=O)c2cc3n(n2)CCCN(C(=O)OCc2cc(Cl)cc(C(F)(F)F)c2)C3)CC(C)O1 (centres unmarked) [Example 269]
≤ 100 nM,–,O=C(CN1CCOCC1)c1cc2n(n1)CCCN(C(=O)OCc1cc(Cl)cc(C(F)(F)F)c1)C2 [Example 271]
≤ 100 nM,–,O=C(CN1CC(C(=O)O)C1)c1cc2n(n1)CCCN(C(=O)OCc1cc(Cl)cc(C(F)(F)F)c1)C2 [Example 272]
≤ 100 nM,–,O=C(CN1CCCC1)c1cc2n(n1)CCCN(C(=O)OCc1cc(Cl)cc(C(F)(F)F)c1)C2 [Example 273]
≤ 100 nM,–,"O=C(OCc1cc(Cl)cc(C(F)(F)F)c1)N1CCn2nc(NC3CCNCC3)cc2C1 [Example 274, 3-chloro-5-(trifluoromethyl)benzyl 2-(piperidin-4-ylamino)-6,7-dihydropyrazolo[1,5-a]pyrazine-5(4H)-carboxylate]"
≤ 100 nM,–,"CN1CCN(C(=O)c2cc3n(c2)CCCN(C(=O)OCc2cc(Cl)cc(C(F)(F)F)c2)C3)CC1 [Example 277, 3-chloro-5-(trifluoromethyl)benzyl 8-(4-methylpiperazine-1-carbonyl)-4,5-dihydro-1H-pyrrolo[1,2-a][1,4]diazepine-2(3H)-carboxylate]"
–,60%,"Nc1cc2n(n1)CCCN(C(=O)OCc1cc(C(F)(F)F)cc(C(F)(F)F)c1)C2 [Example 279, 3,5-Bis(trifluoromethyl)benzyl 2-amino-7,8-dihydro-4H-pyrazolo[1,5-a][1,4]diazepine-5(6H)-carboxylate]"
≤ 100 nM,–,O=C(OCc1cc(C(F)(F)F)cc(C(F)(F)F)c1)N1CCCn2nc(Br)cc2C1 [Example 280]

IC50,inhibition at 10 µM,Structure (SMILES)
–,60%,"O=C(OCc1cc(C(F)(F)F)cc(C(F)(F)F)c1)N1CCCn2nc(CO)cc2C1 [Example 282, 3,5-bis(trifluoromethyl)benzyl 2-(hydroxymethyl)-7,8-dihydro-4H-pyrazolo[1,5-a][1,4]diazepine-5(6H)-carboxylate]"
≤ 100 nM,–,"COCc1cc2n(n1)CCCN(C(=O)OCc1cc(C(F)(F)F)cc(C(F)(F)F)c1)C2 [Example 285, 3,5-bis(trifluoromethyl)benzyl 2-(methoxymethyl)-7,8-dihydro-4H-pyrazolo[1,5-a][1,4]diazepine-5(6H)-carboxylate]"
≤ 100 nM,–,"O=C(OCc1cc(Cl)cc(C(F)(F)F)c1)N1CCCn2nc(C(O)C(F)(F)F)cc2C1 (centres unmarked) [Example 286, 3-chloro-5-(trifluoromethyl)benzyl 2-(2,2,2-trifluoro-1-hydroxyethyl)-7,8-dihydro-4H-pyrazolo[1,5-a][1,4]diazepine-5(6H)-carboxylate]"
≤ 500 nM,–,"CC1(C)C(NCc2cc3n(n2)CCCN(C(=O)OCc2cc(C(F)(F)F)cc(C(F)(F)F)c2)C3)CC1C(=O)O (centres unmarked) [Example 287, 3-(((5-(((3,5-bis(trifluoromethyl)benzyl)oxy)carbonyl)-5,6,7,8-tetra-hydro-4H-pyrazolo[1,5-a][1,4]diazepin-2-yl)methyl)amino)-2,2-dimethylcyclo-butanecarboxylic acid]"
≤ 500 nM,–,O=C(OCc1cc(C(F)(F)F)cc(C(F)(F)F)c1)N1CCCn2nc(CN[C@H]3CC[C@@H](C(=O)O)CC3)cc2C1 [Example 288]
≤ 250 nM,–,O=C(OCc1cc(C(F)(F)F)cc(C(F)(F)F)c1)N1CCCn2nc(CN[C@H]3CC[C@H](C(=O)O)CC3)cc2C1 [Example 289]
≤ 500 nM,–,"CN1CCN(Cc2cc3n(n2)CCCN(C(=O)OCc2cc(C(F)(F)F)cc(C(F)(F)F)c2)C3)CC1 [Example 290, 3,5-bis(trifluoromethyl)benzyl 2-((4-methylpiperazin-1-yl)methyl)-7,8-dihydro-4H-pyrazolo[1,5-a][1,4]diazepine-5(6H)-carboxylate]"
≤ 250 nM,–,O=C(OCc1cc(C(F)(F)F)cc(C(F)(F)F)c1)N1CCCn2nc(CN3CCCCC3)cc2C1 [Example 291]
≤ 500 nM,–,CNCc1cc2n(n1)CCCN(C(=O)OCc1cc(C(F)(F)F)cc(C(F)(F)F)c1)C2 [Example 294]
≤ 100 nM,–,"O=C(OCc1cc(C(F)(F)F)cc(C(F)(F)F)c1)N1CCCn2nc(C(=O)N3CCN(CCO)CC3)cc2C1 [Example 298, 3,5-bis(trifluoromethyl)benzyl 2-(4-(2-hydroxyethyl)piperazine-1-carbonyl)-7,8-dihydro-4H-pyrazolo[1,5-a][1,4]diazepine-5(6H)-carboxylate]"
≤ 100 nM,–,"CS(=O)(=O)NC(=O)c1cc2n(n1)CCCN(C(=O)OCc1cc(C(F)(F)F)cc(C(F)(F)F)c1)C2 [Example 299, 3,5-bis(trifluoromethyl)benzyl 2-((methylsulfonyl)carbamoyl)-7,8-dihydro-4H-pyrazolo[1,5-a][1,4]diazepine-5(6H)-carboxylate]"
≤ 250 nM,–,"NS(=O)(=O)c1cc2n(n1)CCCN(C(=O)OCc1cc(C(F)(F)F)cc(C(F)(F)F)c1)C2 [Example 301, 3,5-bis(trifluoromethyl)benzyl 2-sulfamoyl-7,8-dihydro-4H-pyrazolo[1,5-a][1,4]diazepine-5(6H)-carboxylate]"
≤ 100 nM,–,"CN(C)S(=O)(=O)c1cc2n(n1)CCCN(C(=O)OCc1cc(C(F)(F)F)cc(C(F)(F)F)c1)C2 [Example 302, 3,5-bis(trifluoromethyl)benzyl 2-(N,N-dimethylsulfamoyl)-7,8-dihydro-4H-pyrazolo[1,5-a][1,4]diazepine-5(6H)-carboxylate]"
≤ 100 nM,–,O=C(OCc1cc(C(F)(F)F)cc(C(F)(F)F)c1)N1CCCn2nc(S(=O)(=O)N3CCCCC3)cc2C1 [Example 304]
≤ 100 nM,–,CN1CCN(S(=O)(=O)c2cc3n(n2)CCCN(C(=O)OCc2cc(C(F)(F)F)cc(C(F)(F)F)c2)C3)CC1 [Example 308]
≤ 250 nM,–,"O=C(OCc1cc(C(F)(F)F)cc(C(F)(F)F)c1)N1CCCn2nc(NC3CCNCC3)cc2C1 [Example 313, 3,5-bis(trifluoromethyl)benzyl 2-(piperidin-4-ylamino)-7,8-dihydro-4H-pyrazolo[1,5-a][1,4]diazepine-5(6H)-carboxylate]"
≤ 100 nM,–,CC(C)C1CC(Nc2cc3n(n2)CCCN(C(=O)OCc2cc(C(F)(F)F)cc(C(F)(F)F)c2)C3)CCN1 (centres unmarked) [Example 314]
≤ 100 nM,–,CC1CC(Nc2cc3n(n2)CCCN(C(=O)OCc2cc(C(F)(F)F)cc(C(F)(F)F)c2)C3)CCN1 (centres unmarked) [Example 315]
≤ 250 nM,–,O=C(OCc1cc(C(F)(F)F)cc(C(F)(F)F)c1)N1CCCn2nc(NC3CCCNC3)cc2C1 (centres unmarked) [Example 317]

Structure (SMILES),IC50,inhibition at 10 µM
"CN1C2CCC1CN(C(=O)c1cc3n(c1)CCCN(C(=O)OCc1cc(Cl)cc(C(F)(F)F)c1)C3)C2 [Example 278, 3-chloro-5-(trifluoromethyl)benzyl 8-(8-methyl-3,8-diazabicyclo[3.2.1]octane-3-carbonyl)-4,5-dihydro-1H-pyrrolo[1,2-a][1,4]diazepine-2(3H)-carboxylate]",≤ 100 nM,–
O=C(OCc1cc(C(F)(F)F)cc(C(F)(F)F)c1)N1CCCn2nc(CN3C4CCCC3CC4)cc2C1 [Example 292],≤ 250 nM,–
O=C(OCc1cc(C(F)(F)F)cc(C(F)(F)F)c1)N1CCCn2nc(CN3C4CCCC3CCC4)cc2C1 [Example 293],≤ 100 nM,–
O=C(O)C1CC2CCC(C1)N2Cc1cc2n(n1)CCCN(C(=O)OCc1cc(C(F)(F)F)cc(C(F)(F)F)c1)C2 (centres unmarked) [Example 296],≤ 250 nM,–
O=C(O)C1CC2CCCC(C1)N2Cc1cc2n(n1)CCCN(C(=O)OCc1cc(C(F)(F)F)cc(C(F)(F)F)c1)C2 (centres unmarked) [Example 297],≤ 250 nM,–
O=C(OCc1cc(C(F)(F)F)cc(C(F)(F)F)c1)N1CCCn2nc(S(=O)(=O)N3C4CCCC3CC4)cc2C1 [Example 305],≤ 100 nM,–
O=C(OCc1cc(C(F)(F)F)cc(C(F)(F)F)c1)N1CCCn2nc(S(=O)(=O)N3C4CCCC3CCC4)cc2C1 [Example 306],≤ 100 nM,–
O=C(OCc1cc(C(F)(F)F)cc(C(F)(F)F)c1)N1CCCn2nc(NC3CC4CCCC(C3)N4)cc2C1 (centres unmarked) [Example 316],≤ 100 nM,–
O=C(OCc1cc(C(F)(F)F)cc(C(F)(F)F)c1)N1CCCn2nc(NC3CC4CCC(C3)N4)cc2C1 (centres unmarked) [Example 318],≤ 100 nM,–

# Reference: patent US20160039825A1 (BIOGEN MA INC., priority 2013, published 2016)
